Our source for the RP-LC retention time values is the METLIN SMRT retention time set (Domingo-Almenara et al. 2019).

Molecules are shown by their SMILES.

The nature of the data set: gradient 5% acetonitrile 3 min, to 50% in 2 min, to 85% in 15 min, held 3 min, 100 µL/min. The conditions noted are these: column: Zorbax Extend-C18 2.1 x 50 mm; eluents: water / acetonitrile, 0.1% formic acid. The method, boiled down:
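Data were gathered over 3 months by HPLC coupled to a quadrupole time-of-flight mass spectrometer, operated in positive and negative ionization mode. Mixtures of ~100 pure standards ran on a Zorbax Extend-C18 column (2.1 × 50 mm, 1.8 μm) at 100 μL/min, with water and acetonitrile each containing 0.1% formic acid and dead and dwell volumes of 40 μL and 900 μL. Retention time was read from adduct peaks picked by computer and checked manually.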
Regarding `CCOc1ccc(Cl)cc1S(=O)(=O)N1CCC(C(=O)N2CCCC2)CC1`, the RP-LC retention time was found to be 820 s.

With `CCn1nnc2ccc(-c3noc(-c4ccc(OC)c(OC)c4)n3)cc21`, the RP-LC retention time is 963 s.

The molecule `CSc1ncccc1C(=O)Nc1cccc(OCc2nnc(-c3ccccc3)o2)c1` had an RP-LC retention time of 908 s.

`Cc1cccc(-c2nnc(-c3nc(NCCCN4CCCC4=O)c4ccccc4n3)o2)c1` had an RP-LC retention time of 814 s.

`Cc1sc(-c2nc(C(C)C)cs2)cc1S(=O)(=O)NCc1cccs1` showed an RP-LC retention time of 1150 s.

As to `Cc1nc2ccn(Cc3cccnc3)c(=O)c2cc1C(=O)N1CCOCC1`, the RP-LC retention time stood at 552 s.

As for `CNC(=O)C1CCCN(c2nc3ncn(CC(=O)NCc4ccc(Cl)cc4)c(=O)c3s2)C1` (stereo not given), the RP-LC retention time came to 666 s.

As to `Cc1ccc(-n2nc(N3CCCC(C(=O)NCc4ccc5c(c4)OCO5)C3)ccc2=O)cc1Cl` (stereo not given), the RP-LC retention time is 875 s.

The molecule `Cc1[nH]c(C(=O)N2CCC(CC(=O)N3CCCC3)CC2)c(C)c1C(=O)OC(C)C` showed an RP-LC retention time of 735 s.

`c1ccc(CN2CCC3(CCc4ccccc43)CC2)cc1`: the RP-LC retention time amounted to 784 s.

In the case of `COc1ccccc1-c1noc(C2CCCN2C(=O)c2ccoc2)n1` (stereo not given), the RP-LC retention time was determined as 763 s.

In turn, `COc1cccc(-n2nnc(C(=O)O)c2-c2ccncc2)c1` returned an RP-LC retention time of 628 s.

`CCc1nnc2nc(N3CCN(C(=O)c4ccc(Cl)s4)CC3)cc(C)n12` showed an RP-LC retention time of 638 s.

Molecule `COCC(=O)Nc1cnc(-c2ccc(Cl)cc2)nc1` gave an RP-LC retention time of 857 s.

For the molecule `COc1cccc(CNC(=O)C2CCN(S(=O)(=O)c3ccc4c(c3)NC(=O)C(C)O4)CC2)c1` (stereo not given), the RP-LC retention time came to 757 s.

`C=C1[C@@H](C)[C@H]2[C@H](Cc3ccccc3)NC(=O)C23[C@H](OC(C)=O)/C=C/[C@](C)(O)C(=O)[C@@H](C)C/C=C/[C@H]3[C@@H]1O` (stereo not given in full) came in with an RP-LC retention time of 801 s.

Take `O=c1ccc(-c2ccc(F)cc2)nn1CCc1nc(-c2ccncc2)no1`: the RP-LC retention time was found to be 758 s.

Regarding `CCc1nc2cc(N3CCC(C(=O)NCCN4CCCCC4)CC3)cnc2nc1CC`, the RP-LC retention time was found to be 580 s.

In turn, `COc1cccc(CNC(=O)C2(c3ccc(NC(C)=O)cc3)CCC2)c1` displayed an RP-LC retention time of 737 s.

Molecule `CSc1ccccc1NC(=O)c1nnn(-c2cc(Cl)ccc2C)c1C` yielded an RP-LC retention time of 1180 s.

With `CCS(=O)(=O)N1CCCCCC1c1ccccc1Cl` (stereo not given), the RP-LC retention time was found to be 1090 s.

`COc1ccc(SCC(=O)Nc2c3c(nn2C)CCC3)cc1`: the RP-LC retention time worked out at 687 s.

With `CCOC(=O)c1cnn2c(SC)ncnc12`, the RP-LC retention time worked out at 776 s.

Regarding `CC1Cc2ccccc2N1C(=O)Cc1csc2nc(-c3ccccc3)cn12` (stereo not given), the RP-LC retention time amounted to 881 s.

Take `NC(=O)c1ccsc1NC(=O)c1c(F)cccc1Cl`: the RP-LC retention time was determined as 706 s.

Molecule `CCCn1cc(-c2nc(-c3ccccn3)no2)c(=O)c2cc(F)ccc21` registered an RP-LC retention time of 761 s.

The molecule `O=c1c2cnc3nc(-c4ccccc4)nn3c2ccn1CCc1c[nH]c2ccccc12` registered an RP-LC retention time of 925 s.

The molecule `O=C(NC1CC1)c1nc(C(=O)N2CCN(C3CCCCC3)CC2)cs1` came in with an RP-LC retention time of 601 s.

Regarding `COc1ccc(NC(=O)Cn2nc3n(c2=O)CCCC3)c(OC)c1`, the RP-LC retention time came to 642 s.

`Cc1cc(C)c(S(=O)(=O)N2CCCC(C(=O)NC3CC3)C2)c(C)c1` (stereo not given) came in with an RP-LC retention time of 842 s.

As to `Cc1cc(C)cc(NC(=O)CN2C(=O)CC(C)S(=O)(=O)c3ccccc32)c1` (stereo not given), the RP-LC retention time was 846 s.

For `O=C(Nc1cccc(C(F)(F)F)c1)c1ccc(-n2cnc(NC(=O)C3CC3)c2)cc1`, the RP-LC retention time came to 872 s.

Regarding `CCn1ncc(Cl)c1C(=O)N1CCCC1c1cccc(F)c1` (stereo not given), the RP-LC retention time amounted to 922 s.

As for `O=C1C(N2CCN(S(=O)(=O)c3cc(F)cc(F)c3)CC2)CCN1Cc1ccccn1` (stereo not given), the RP-LC retention time was found to be 601 s.

In turn, `CCCn1cc(S(=O)(=O)Nc2cccc(F)c2C)c2cccnc21` registered an RP-LC retention time of 861 s.

`COc1ccc(C(=O)NC2CCN(c3ccc(=O)n(C)n3)C2)c(OC)n1` (stereo not given) had an RP-LC retention time of 742 s.

Consider `O=C(CCc1ccccc1)Nc1cnn(-c2ncncc2N2CCOCC2)c1`, for which the RP-LC retention time came to 649 s.

In turn, `O=C(CN1C(=O)COc2ccc(C(=O)N3CCCC3)cc21)NCCCc1ccccc1` came in with an RP-LC retention time of 747 s.

Regarding `O=C(Nc1ccccc1Br)c1ccc(OC(F)F)cc1`, the RP-LC retention time came out at 914 s.

The molecule `Cc1ccc(Cn2cccc2C(=O)C(=O)NC2CCCC2)cc1` yielded an RP-LC retention time of 1100 s.

Turning to `CCOc1ccc(CNC(=O)C2CCN(S(=O)(=O)c3ccc4c(c3)NC(=O)CO4)CC2)cc1`, the RP-LC retention time was found to be 880 s.

Molecule `Cc1cccc(-c2nnc(-c3nc(NCc4ccco4)c4ccccc4n3)o2)c1` yielded an RP-LC retention time of 1010 s.

As for `CC(C)NC(=O)N1CCC(c2nc(C(C)C)cs2)CC1`, the RP-LC retention time turned out to be 766 s.

`COc1ccc(-c2noc(C3CC(=O)N(c4cc(Cl)ccc4OC)C3)n2)cc1` (stereo not given) came in with an RP-LC retention time of 950 s.

As to `CCCC(=O)Nc1nc2ccc(CCC(=O)Nc3cc(Cl)c(OC)cc3OC)cc2s1`, the RP-LC retention time is 920 s.

Consider `O=C1C2N=NN(Cc3nc(-c4ccccc4Cl)no3)C2C(=O)N1c1ccc2c(c1)OCO2` (stereo not given), for which the RP-LC retention time worked out at 1020 s.

The molecule `Cc1ccc(NC(=O)N2CCCC2c2nc(-c3cccc(C)c3)no2)cc1` (stereo not given) gave an RP-LC retention time of 1060 s.

In turn, `O=C(c1ccc(=O)oc1)N1CCN(Cc2nc(-c3ccccc3)cs2)CC1` returned an RP-LC retention time of 637 s.

For `CCN1C(=O)c2cccnc2Sc2cc(NC(=O)c3ccccc3C)ccc21`, the RP-LC retention time worked out at 833 s.

For the molecule `CCOC(=O)c1sc(NC(=O)CCCC(=O)O)nc1-c1ccccc1`, the RP-LC retention time is 770 s.

Molecule `Cc1csc(-c2ccc(N3CCN(C(=O)c4ccccc4Br)CC3)nc2)n1` yielded an RP-LC retention time of 884 s.

For `COc1ccc(NC(=O)N2CCN(c3cc(C)nc(N4CCOCC4)n3)CC2)c(OC)c1`, the RP-LC retention time came to 589 s.

Turning to `Cc1[nH]nc(-c2ccc(S(=O)(=O)NC(C)C)o2)c1C`, the RP-LC retention time turned out to be 729 s.

Turning to `O=C(Cn1cccc1-c1nnc(C2CC2)o1)NCc1ccc(Cl)cc1`, the RP-LC retention time stood at 825 s.

`CCN1CCN(c2nc(F)c3c(c2F)S(=O)(=O)CCN3Cc2ccccc2)CC1` showed an RP-LC retention time of 682 s.

Take `CCc1ccc(NC(=O)Cn2c(-c3cnccn3)nc(C)c(C)c2=O)cc1`: the RP-LC retention time is 792 s.

As for `C=CCn1c(SCC#CCO)nc2ccccc2c1=O`, the RP-LC retention time was determined as 744 s.

The molecule `Cc1cc(-c2nnc(NC(=O)c3cc(Cl)sc3Cl)o2)n(C)n1` displayed an RP-LC retention time of 772 s.

In the case of `CCN(CC)CCCNc1ncnc2c1cnn2-c1cccc(Cl)c1`, the RP-LC retention time worked out at 648 s.

On to `Cc1cc(C)cc(N2CCC(NC(=O)Cc3ccc(F)cc3)C2=O)c1` (stereo not given), for which the RP-LC retention time was determined as 864 s.
